# Test results taken from publication PMC6272684, “Synthesis, Antiproliferative and Antifungal Activities of 1,2,3-Triazole-Substituted Carnosic Acid and Carnosol Derivatives” (Molecules, 2015).
# Where two headings read alike, the source gives them in different places.
# Key:
# C. albicans ATCC 10231 = test: Antifungal broth microdilution (CLSI M27-A3), growth inhibition; type: cell-based, Candida albicans; details: for MIC50 (minimum concentration to inhibit 50% of fungal growth), C. albicans: C. albicans ATCC 10231
# Procedure, shortened: (§1)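 Yeast inocula (1–5 × 10^3 CFU/mL) were tested by CLSI M27-A3 broth microdilution in RPMI-1640 at 250–3.9 μg∙mL^−1 (DMSO ≤1%) for 48 h at 30 °C in the dark. Growth was read at OD405, and % inhibition was calculated against growth and sterility controls in triplicate. MIC100 is total inhibition; MIC50 is 50% inhibition.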
# C. neoformans ATCC 32264 = test: as above; type: cell-based, Cryptococcus neoformans; details: for MIC50 (minimum concentration to inhibit 50% of fungal growth), C. neoformans: C. neoformans ATCC 32264
# Procedure, shortened: as §1
# [1] = test system: gastric epithelial adenocarcinoma (AGS) cells; test: Antiproliferative assay (MTT reduction, 3 days); type: cell-based, human; details: >100 µM considered inactive, read-out: IC50 ± SD, AGS
# Description: (§2) The antiproliferative activity towards the following human cell lines was determined: normal lung fibroblasts (MRC-5), gastric epithelial adenocarcinoma (AGS), lung cancer (SK-MES-1) and bladder carcinoma (J82) cells. […] When comparing the pairs 3–4, 5–6 and 7–8 differing in one CH2 unit in the linker, the activity decreased with linker length.
# (§3) All human cell lines used in this work were purchased from the American Type Culture Collection (ATCC, Manasas, VA, USA). Normal lung MRC-5 fibroblasts (CCL-171), SK-MES-1 lung cancer cells (HTB-58) and J82 bladder carcinoma cells (HTB-1) were grown as monolayers in minimum essential Eagle medium (MEM) with Earles’s salts, 2 mM L-glutamine and 1.5 g∙L^−1 sodium bicarbonate. Gastric adenocarcinoma AGS cells (CRL-1739) were grown as monolayers in Ham F-12 medium containing 1 mM L-glutamine and 1.5 g∙L^−1 sodium bicarbonate. All media were supplemented with 10% heat-inactivated FBS, 100 IU∙mL^−1 penicillin and 100 µg∙mL^−1 streptomycin. Cells were grown in a humidified incubator with 5% CO2 in air at 37 °C. For the antiproliferative assay, cells were plated at a density of 5 × 10^4 cells∙mL^−1. Cells were seeded in 96-well plates (100 µL∙well^−1). One day after seeding, cells were treated with medium containing the compounds at concentrations ranging from 0 up to 100 µM during 3 days. The compounds were dissolved in DMSO (1% final concentration) and complete medium. Untreated cells (medium containing 1% DMSO) were used as 100% viability controls. […] Each concentration was tested in sextuplicate and experiments were repeated 2 times. Cell viability was determined by means of the MTT reduction assay at the end of the incubation with the products. The results were transformed to percentage of controls and the IC50 value was obtained adjusting the dose-response curve to a sigmoidal model. The software used was OriginPro 8.1 [30].
# [2] = test system: bladder carcinoma (J82) cells; test: Antiproliferative assay (MTT reduction, 3 days); type: cell-based, human; details: Homo sapiens, J82, 72 h, read-out: IC50 ± SD, J82
# Description: as §2, §3
smiles,measurement,setting,value
"COC(=O)C12CCCC(C)(C)C1CCc1cc(C(C)C)c(OC(=O)CCc3cn(Cc4ccccc4)nn3)c(OC(=O)CCc3cn(Cc4ccccc4)nn3)c12 (stereo not drawn) [Compound 11, Methyl(11,12-O-(3-(1-benzyl-1H-1,2,3-triazol-4-yl)-propanoyloxy)-abieta-8,11,13-triene)-20-oate]",Inhibition percentage against C. albicans ATCC 10231,"C. albicans ATCC 10231; 3.9 μg∙mL^−1, 48 h",1.8 ± 0.1%
same,Inhibition percentage against C. albicans ATCC 10231,"C. albicans ATCC 10231; 7.8 μg∙mL^−1, 48 h",1.9 ± 0.5%
same,Inhibition percentage against C. albicans ATCC 10231,"C. albicans ATCC 10231; 15.6 μg∙mL^−1, 48 h",3.5 ± 0.7%
same,Inhibition percentage against C. albicans ATCC 10231,"C. albicans ATCC 10231; 62.5 μg∙mL^−1, 48 h",11.8 ± 0.3%
same,Inhibition percentage against C. albicans ATCC 10231,"C. albicans ATCC 10231; 125 μg∙mL^−1, 48 h",23.3 ± 2.1%
same,Inhibition percentage against C. albicans ATCC 10231,"C. albicans ATCC 10231; 250 μg∙mL^−1, 48 h",45.7 ± 3.0%
same,Inhibition percentage against C. albicans ATCC 10231,"C. albicans ATCC 10231; 31. μg∙mL^−1, 48 h",5.5 ± 1.7%
same,"MIC50 (minimum concentration to inhibit 50% of fungal growth), C. albicans",C. albicans ATCC 10231,>250 µg/mL
same,Antifungal activity against C. albicans (in words),C. albicans ATCC 10231; at the assayed concentrations (250–3.9 μg∙mL^−1),weak effect
same,Inhibition percentage against C. neoformans ATCC 32264,"C. neoformans ATCC 32264; 3.9 μg∙mL^−1, 48 h",0.0%
same,Inhibition percentage against C. neoformans ATCC 32264,"C. neoformans ATCC 32264; 7.8 μg∙mL^−1, 48 h",2.7 ± 0.9%
same,Inhibition percentage against C. neoformans ATCC 32264,"C. neoformans ATCC 32264; 15.6 μg∙mL^−1, 48 h",13.3 ± 2.0%
same,Inhibition percentage against C. neoformans ATCC 32264,"C. neoformans ATCC 32264; 31.2 μg∙mL^−1, 48 h",14.2 ± 1.3%
same,Inhibition percentage against C. neoformans ATCC 32264,"C. neoformans ATCC 32264; 62.5 μg∙mL^−1, 48 h",19.4 ± 2.1%
same,Inhibition percentage against C. neoformans ATCC 32264,"C. neoformans ATCC 32264; 125 μg∙mL^−1, 48 h",38.3 ± 2.9%
same,Inhibition percentage against C. neoformans ATCC 32264,"C. neoformans ATCC 32264; 250 μg∙mL^−1, 48 h",57.2 ± 2.4%
same,"MIC50 (minimum concentration to inhibit 50% of fungal growth), C. neoformans",C. neoformans ATCC 32264,250 µg/mL
same,IC50,[1],89.4 µM
"CC(C)c1cc2c(c(OC(=O)CCc3cn(Cc4ccc([N+](=O)[O-])cc4)nn3)c1OC(=O)CCc1cn(Cc3ccc([N+](=O)[O-])cc3)nn1)C13CCCC(C)(C)C1CC2OC3=O (stereo not drawn) [Compound 23, (7β)-11,12-O-(3-(1-(4-nitrobenzyl)-1H-1,2,3-triazol-4-yl)-propanoyloxy)-7,20-epoxyabieta-8,11,13-trien-20-one]",Inhibition percentage against C. albicans ATCC 10231,"C. albicans ATCC 10231; 3.9 μg∙mL^−1, 48 h",0.0%
same,Inhibition percentage against C. albicans ATCC 10231,"C. albicans ATCC 10231; 7.8 μg∙mL^−1, 48 h",1.6 ± 0.8%
same,Inhibition percentage against C. albicans ATCC 10231,"C. albicans ATCC 10231; 15.6 μg∙mL^−1, 48 h",3.3 ± 0.6%
same,Inhibition percentage against C. albicans ATCC 10231,"C. albicans ATCC 10231; 62.5 μg∙mL^−1, 48 h",6.7 ± 1.6%
same,Inhibition percentage against C. albicans ATCC 10231,"C. albicans ATCC 10231; 125 μg∙mL^−1, 48 h",17.6 ± 1.4%
same,Inhibition percentage against C. albicans ATCC 10231,"C. albicans ATCC 10231; 250 μg∙mL^−1, 48 h",25.5 ± 2.5%
same,Inhibition percentage against C. albicans ATCC 10231,"C. albicans ATCC 10231; 31. μg∙mL^−1, 48 h",6.0 ± 0.5%
same,"MIC50 (minimum concentration to inhibit 50% of fungal growth), C. albicans",C. albicans ATCC 10231,>250 µg/mL
same,Inhibition percentage against C. neoformans ATCC 32264,"C. neoformans ATCC 32264; 3.9 μg∙mL^−1, 48 h",6.0 ± 0.1%
same,Inhibition percentage against C. neoformans ATCC 32264,"C. neoformans ATCC 32264; 7.8 μg∙mL^−1, 48 h",11.5 ± 1.5%
same,Inhibition percentage against C. neoformans ATCC 32264,"C. neoformans ATCC 32264; 15.6 μg∙mL^−1, 48 h",16.2 ± 0.2%
same,Inhibition percentage against C. neoformans ATCC 32264,"C. neoformans ATCC 32264; 31.2 μg∙mL^−1, 48 h",18.1 ± 0.4%
same,Inhibition percentage against C. neoformans ATCC 32264,"C. neoformans ATCC 32264; 62.5 μg∙mL^−1, 48 h",32.6 ± 0.8%
same,Inhibition percentage against C. neoformans ATCC 32264,"C. neoformans ATCC 32264; 125 μg∙mL^−1, 48 h",37.7 ± 0.7%
same,"MIC50 (minimum concentration to inhibit 50% of fungal growth), C. neoformans",C. neoformans ATCC 32264,250 µg/mL
same,IC50,[1],99.4 µM
"COc1cc([C@@H]2c3cc4c(cc3[C@@H](O[C@@H]3O[C@@H]5CO[C@@H](C)O[C@H]5[C@H](O)[C@H]3O)[C@H]3COC(=O)[C@H]23)OCO4)cc(OC)c1O [Etoposide, reference compound]",IC50,"[1]; Homo sapiens, 72 h",0.58 ± 0.02 µM
same,IC50,[2],3.49 ± 0.16 µM
